Data: patent US20250313549A1, “HERBICIDAL DERIVATIVES” (SYNGENTA CROP PROTECTION AG, priority 2021, published 2025)

Legend:
Format in all cases: in vivo
[1] = system: Amaranthus retoflexus (AMARE); experiment: Pre-emergence test, herbicidal damage; conditions: 1000 g/ha, evaluated after 13 days
Setaria faberi (SETFA) [2] = experiment: Pre-emergence test, herbicidal damage; conditions: 1000 g/ha, evaluated after 13 days
Zea mays (ZEAMX) [3] = experiment: Pre-emergence test, herbicidal damage; conditions: 1000 g/ha, evaluated after 13 days
[4] = system: Amaranthus palmeri (AMAPA); experiment: Pre-emergence test, herbicidal damage; conditions: 1000 g/ha, evaluated after 13 days
[5] = system: Amaranthus palmeri (AMAPA); experiment: Post-emergence test, herbicidal damage; conditions: sprayed after 8 days cultivation, 1000 g/ha, evaluated after 13 days
Procedure: (§1) Seeds of a variety of test species are sown in standard soil in pots (Amaranthus retoflexus (AMARE), Echinochloa crus-galli (ECHCG), Amaranthus palmeri (AMAPA), Setaria faberi (SETFA), Zea mays (ZEAMX), Ipomoea hederacea (IPOHE)). After 8 days cultivation under controlled conditions in a glasshouse (at 24° C./16° C., day/night; 14 hours light; 65% humidity), the plants are sprayed with an aqueous spray solution derived from the formulation of the technical active ingredient in acetone/water (50:50) solution containing 0.5% Tween 20 (polyoxyethylene sorbitan monolaurate, CAS RN 9005-64-5). Compounds are applied at 1000 g/ha unless otherwise stated. The test plants are then grown in a glasshouse under controlled conditions in a glasshouse (at 24° C./16° C., day/night; 14 hours light; 65% humidity) and watered twice daily. After 13 days the test is evaluated for the percentage damage caused to the plant. The biological activities are shown in the following table on a five-point scale (5=81-100%; 4=61-80%; 3=41-60%; 2=21-40%; 1=10-20%; 0=0%; -=not tested).

Zea mays (ZEAMX) [6] = experiment: Post-emergence test, herbicidal damage; conditions: sprayed after 8 days cultivation, 1000 g/ha, evaluated after 13 days
Procedure: as §1

[7] = system: Amaranthus retoflexus (AMARE); experiment: Post-emergence test, herbicidal damage; conditions: sprayed after 8 days cultivation, 1000 g/ha, evaluated after 13 days
Procedure: as §1

Setaria faberi (SETFA) [8] = experiment: Post-emergence test, herbicidal damage; conditions: sprayed after 8 days cultivation, 1000 g/ha, evaluated after 13 days
Procedure: as §1

[9] = system: Ipomoea hederacea (IPOHE); experiment: Post-emergence test, herbicidal damage; conditions: sprayed after 8 days cultivation, 1000 g/ha, evaluated after 13 days
Procedure: as §1

[10] = system: Echinochloa crus-galli (ECHCG); experiment: Post-emergence test, herbicidal damage; conditions: sprayed after 8 days cultivation, 1000 g/ha, evaluated after 13 days
Procedure: as §1

[11] = system: Ipomoea hederacea (IPOHE); experiment: Pre-emergence test, herbicidal damage; conditions: 1000 g/ha, evaluated after 13 days
[12] = system: Echinochloa crus-galli (ECHCG); experiment: Pre-emergence test, herbicidal damage; conditions: 1000 g/ha, evaluated after 13 days

Compound	percentage damage caused to the plant, AMARE [1]	percentage damage caused to the plant, SETFA (Setaria faberi (SETFA) [2])	percentage damage caused to the plant, ZEAMX (Zea mays (ZEAMX) [3])	percentage damage caused to the plant, AMAPA [4]	percentage damage caused to the plant, AMAPA [5]	percentage damage caused to the plant, ZEAMX (Zea mays (ZEAMX) [6])	percentage damage caused to the plant, AMARE [7]	percentage damage caused to the plant, SETFA (Setaria faberi (SETFA) [8])	percentage damage caused to the plant, IPOHE [9]	percentage damage caused to the plant, ECHCG [10]	percentage damage caused to the plant, IPOHE [11]	percentage damage caused to the plant, ECHCG [12]
CCOC(=O)c1nn(-c2ccnc(Br)c2)c2cccc(Br)c2c1=O [Compound 10, ethyl 5-bromo-1-(2-bromo-4-pyridyl)-4-oxo-cinnoline-3-carboxylate]	1 (1=10-20%)	0 (0=0%)	0 (0=0%)	0 (0=0%)	3 (3=41-60%)	0 (0=0%)	3 (3=41-60%)	0 (0=0%)	0 (0=0%)	1 (1=10-20%)	0 (0=0%)	
CCOC(=O)c1nn(-c2ncc(Cl)cn2)c2cccc(Br)c2c1=O [Compound 34, ethyl 5-bromo-1-(5-chloropyrimidin-2-yl)-4-oxo-cinnoline-3-carboxylate]	0 (0=0%)	1 (1=10-20%)	0 (0=0%)	1 (1=10-20%)	1 (1=10-20%)	1 (1=10-20%)	3 (3=41-60%)	2 (2=21-40%)	3 (3=41-60%)	0 (0=0%)	0 (0=0%)	0 (0=0%)
CCOC(=O)c1nn(-c2ccc(F)nc2)c2cccc(Br)c2c1=O [Compound 23, ethyl 5-bromo-1-(6-fluoro-3-pyridyl)-4-oxo-cinnoline-3-carboxylate]	0 (0=0%)	4 (4=61-80%)	0 (0=0%)	0 (0=0%)	0 (0=0%)	1 (1=10-20%)	0 (0=0%)	4 (4=61-80%)	0 (0=0%)	4 (4=61-80%)	1 (1=10-20%)	5 (5=81-100%)
N#Cc1cccc2c1c(=O)c(C(=O)O)nn2-c1cncnc1 [Compound 1, 5-cyano-4-oxo-1-pyrimidin-5-yl-cinnoline-3-carboxylic acid]	0 (0=0%)	0 (0=0%)	0 (0=0%)	0 (0=0%)	1 (1=10-20%)	1 (1=10-20%)	2 (2=21-40%)	1 (1=10-20%)	1 (1=10-20%)	2 (2=21-40%)	0 (0=0%)	2 (2=21-40%)
CCOC(=O)c1nn(-c2ccc(OC(F)F)nc2)c2cccc(C(C)=O)c2c1=O [Compound 37, ethyl 5-acetyl-1-[6-(difluoromethoxy)-3-pyridyl]-4-oxo-cinnoline-3-carboxylate]	0 (0=0%)		4 (4=61-80%)	0 (0=0%)	0 (0=0%)		1 (1=10-20%)	1 (1=10-20%)	2 (2=21-40%)	4 (4=61-80%)	0 (0=0%)	4 (4=61-80%)
